According to US20060069132A1, “Azolecarboxamide herbicides” (priority 2004, published 2006):

How the values were obtained:
[1] = tested on: woolly cupgrass; test: Test C pre-/postemergence herbicide test; type: in vivo, Eriochloa villosa; settings: preemergence; for Plant response rating (0 = no effect, 100 = complete control), Cupgrass, Woolly: 125 g ai/ha
How it was run: (§1)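 Visual ratings on a 0–100 scale (100 = complete control) made versus untreated controls after 12 to 14 greenhouse days. Test chemicals, formulated in surfactant-containing non-phytotoxic solvent, applied preemergence to planted seeds or postemergence to 1- to 4-leaf plants (2 to 18 cm).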

[2] = tested on: soybean; test: Test C pre-/postemergence herbicide test; type: in vivo, Glycine max; settings: preemergence; for Plant response rating (0 = no effect, 100 = complete control), Soybean: 125 g ai/ha
How it was run: as §1

[3] = tested on: smallflower umbrella sedge; test: Test C flooded paddy test; type: in vivo, Cyperus difformis; settings: for Plant response rating, Sedge, Umbrella: 500 g ai/ha, visual rating after 12 to 14 days
[4] = tested on: common (oilseed) sunflower; test: Test C pre-/postemergence herbicide test; type: in vivo, Helianthus annuus; settings: preemergence; for Plant response rating (0 = no effect, 100 = complete control), Sunflower: 125 g ai/ha
How it was run: as §1

[5] = tested on: rice; test: Test C flooded paddy test; type: in vivo, Oryza sativa; settings: for Plant response rating, Rice: 500 g ai/ha, visual rating after 12 to 14 days
How it was run: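 Plants were grown to the 1- to 4-leaf stage (2–18 cm) and then treated postemergence, or grown to the 2-leaf stage for the flooded paddy test. They were held in a greenhouse for 12 to 14 days and then scored by eye against controls, where 0 is no effect and 100 is complete control.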

[6] = tested on: corn; test: Test C pre-/postemergence herbicide test; type: in vivo, Zea mays; settings: preemergence; for Plant response rating (0 = no effect, 100 = complete control), Corn: 125 g ai/ha
How it was run: as §1

[7] = tested on: bermudagrass; test: Test C pre-/postemergence herbicide test; type: in vivo, Cynodon dactylon; settings: preemergence; for Plant response rating (0 = no effect, 100 = complete control), Bermudagrass: 125 g ai/ha
How it was run: as §1

[8] = tested on: velvetleaf; test: Test C pre-/postemergence herbicide test; type: in vivo, Abutilon theophrasti; settings: preemergence; for Plant response rating (0 = no effect, 100 = complete control), Velvetleaf: 125 g ai/ha
How it was run: as §1

[9] = tested on: large crabgrass; test: Test A pre-/postemergence herbicide test; type: in vivo, Digitaria sanguinalis
How it was run: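 Visual injury scores on a 0–100 scale (100 = complete control) taken about ten days post-treatment in greenhouse against untreated controls; dash means no result. Treatments: preemergence soil spray and postemergence spray to runoff on one- to two-leaf plants 2 to 10 cm tall, surfactant-containing formulation.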

[10] = 500 g ai/ha, scale 0 to 100 (0 no effect, 100 complete control), visual, 12 to 14 days
[11] = 125 g ai/ha, scale 0 to 100 (0 no effect, 100 complete control)
[12] = 250 g ai/ha, scale of 0 to 100, 0 is no effect, 100 is complete control
[13] = scale 0 to 100 (0 no effect, 100 complete control)
[14] = 62 g ai/ha, scale 0 to 100, 0 no effect, 100 complete control

Compound | Plant response rating, Cupgrass, Woolly ([1]; 62 g ai/ha, scale 0 to 100) | Plant response rating (0 = no effect, 100 = complete control), Cupgrass, Woolly [1] | Plant response rating, Cupgrass, Woolly ([1]; 250 g ai/ha, scale 0-100) | Plant response rating, Cupgrass, Woolly [1, 10] | Plant response rating, Soybean ([2]; 62 g ai/ha, scale 0 to 100) | Plant response rating (0 = no effect, 100 = complete control), Soybean [2] | Plant response rating, Soybean [2, 10] | Plant response rating, Sunflower ([4]; 62 g ai/ha, scale 0 to 100) | Plant response rating (0 = no effect, 100 = complete control), Sunflower [4] | Plant response rating, Sunflower [4, 10] | Plant response rating, Corn ([6]; 62 g ai/ha, scale 0 to 100) | Plant response rating (0 = no effect, 100 = complete control), Corn [6] | Plant response rating, Corn ([6]; 250 g ai/ha, scale 0-100) | Plant response rating, Corn [6, 10] | Plant response rating, Bermudagrass [7, 14] | Plant response rating (0 = no effect, 100 = complete control), Bermudagrass [7] | Plant response rating, Bermudagrass ([7]; 250 g ai/ha, scale 0-100) | Plant response rating, Bermudagrass [7, 10] | Plant response rating, Velvetleaf ([8]; 62 g ai/ha, scale 0 to 100) | Plant response rating (0 = no effect, 100 = complete control), Velvetleaf [8] | further results
CCC1=NN(C(C)(C)C)CC1C(=O)Nc1cc(C(=O)N2CC=CC2)ccc1F (racemic) [Compound 340] | 0 | 20 | 45 | 75 | 0 | 0 | 10 | 0 | 0 | 5 | 5 | 45 | 45 | 50 | 20 | 70 | 85 | 100 | 0 | 60 | Plant response rating, Soybean ([2]; 250 g ai/ha, scale 0-100): 0; Sedge, Umbrella plant response rating ([3]; 62 g ai/ha, scale 0 to 100): 50; Sedge, Umbrella plant response rating [3, 11]: 70; Sedge, Umbrella plant response rating [3, 12]: 70; Plant response rating, Sedge, Umbrella [3, 13]: 90; Plant response rating, Sunflower ([4]; 250 g ai/ha, scale 0-100): 0; Rice plant response rating ([5]; 62 g ai/ha, scale 0 to 100): 20; Rice plant response rating [5, 11]: 40; Rice plant response rating [5, 12]: 70; Plant response rating, Rice [5, 13]: 80; Plant response rating, Velvetleaf ([8]; 250 g ai/ha, scale 0-100): 95; Plant response rating, Velvetleaf [8, 10]: 100
CCC1=NN(C(C)(C)C)CC1C(=O)Nc1cc(C(=O)N2CCCC2)ccc1F (racemic) [Compound 341] | 80 | 80 | 100 | 100 | 0 | 20 | 100 | 0 | 0 | 100 | 10 | 60 | 85 | 90 | 80 | 80 | 100 | 100 | 30 | 60 | Plant response rating, Soybean ([2]; 250 g ai/ha, scale 0-100): 70; Sedge, Umbrella plant response rating ([3]; 62 g ai/ha, scale 0 to 100): 20; Sedge, Umbrella plant response rating [3, 11]: 50; Sedge, Umbrella plant response rating [3, 12]: 60; Plant response rating, Sedge, Umbrella [3, 13]: 60; Plant response rating, Sunflower ([4]; 250 g ai/ha, scale 0-100): 50; Rice plant response rating ([5]; 62 g ai/ha, scale 0 to 100): 20; Rice plant response rating [5, 11]: 50; Rice plant response rating [5, 12]: 60; Plant response rating, Rice [5, 13]: 70; Plant response rating, Velvetleaf ([8]; 250 g ai/ha, scale 0-100): 100; Plant response rating, Velvetleaf [8, 10]: 100
CCc1nn(C(C)(C)C)nc1C(=O)Nc1cccc(C(=O)NC2CC2)c1 [Compound 417] | 0 | 20 | 65 | 85 | 0 | 0 | 40 | 0 | 0 | 0 | 0 | 0 | 10 | 65 | 100 | 100 | 100 | 100 | 75 | 100 | Crabgrass, Large plant response rating ([9]; Postemergence, 500 g ai/ha, 0 to 100 scale, 0 no effect, 100 complete control): 30; Plant response rating, Crabgrass, Large ([9]; Postemergence, 2000 g ai/ha, 0 to 100 scale, 0 no effect, 100 complete control): 85; Crabgrass, Large plant response rating ([9]; Preemergence, 2000 g ai/ha, visual rating, 0 to 100 scale (0 no effect, 100 complete control)): 95; Crabgrass, Large plant response rating ([9]; preemergence, 500 g ai/ha, visual injury, 0 to 100 scale (0 no effect, 100 complete control)): 75; Plant response rating, Velvetleaf [8, 10]: 100
